Reference: patent publication US20110086916A1, “INTERVAL THERAPY FOR THE TREATMENT OF TINNITUS” (MERZ PHARMA GmbH & CO. KGaA, priority 2007, published 2011)

System: subjects with subjective tinnitus of at least moderate severity
Test: Double blind placebo controlled pilot trial of neramexane for treatment of tinnitus (TBF-12 score)
Assay type: in vivo, human
Conditions: for Change in the TBF-12 total score from baseline, Change LSMean: ANCOVA
Method: Visit 1 (screening): After signing the consent form, the subject underwent a physical examination and clinical laboratory testing. Patient eligibility for the study was evaluated via a check of inclusion/exclusion criteria. An initial Tinnitus Interview was conducted. The subject also completed a Tinnitus-Beeinträchtigungs-Fragebogen (TBF-12) (i.e., a 12-item German modified and validated version (Greimel K V et al., Tinnitus-Beeinträchtigungs-Fragebogen (TBF-12). Manual. Frankfurt am Main: Swets & Zeitlinger B.V.; 2000) of the 25-item Tinnitus Handicap Inventory or THI (Newman C W, et al. Development of the Tinnitus Handicap Inventory. Arch Otolaryngol Head Neck Surg 1996; 122(2): 143-148; Newman C W, et al. Psychometric adequacy of the Tinnitus Handicap Inventory (THI) for evaluating treatment outcome. J Am Acad Audiol 1998; 9(2): 153-160.)), a Hospital Anxiety and Depression Scale—Depression Subscale (HADS-D) Questionnaire and a Hyperacusis (Geräuschüberempfindlichkeit-Fragenbogen (GÜF)) Questionnaire (if applicable).
Visit 2 (baseline): The subject was asked about adverse events and changes in concomitant medication/disease, which events/changes were documented. The subject was evaluated for study eligibility based on a review of the inclusion/exclusion criteria. Trial procedures as well as allowed and forbidden concomitant medications were reviewed with the subject. An initial Tinnitus Interview was conducted. The subject also completed a TBF-12, HADS-D Questionnaire and GÜF Questionnaire (if applicable). The subject was enrolled in the study and study medication (placebo or neramexane) was dispensed as described below.
Visit 3 (Week 4): This visit occurred at the end of the 4-week up-titration sequence. The subject was asked about adverse events and changes in concomitant medication/disease, which events/changes were documented. A follow-up Tinnitus Interview was conducted. The subject also completed a TBF-12, HADS-D Questionnaire and GÜF Questionnaire (if applicable). Medication compliance was assessed, and medication for the next 4 weeks was dispensed as described below.
(§1) Visit 4 (Week 8): This visit occurred at the end of the first 4-week fixed-dose double-blind treatment period. The subject was asked about adverse events and changes in concomitant medication/disease, which changes are documented. Blood samples were collected in order to determine neramexane pre-dose concentration. A follow-up Tinnitus Interview was conducted. The subject also completed a TBF-12, HADS-D Questionnaire and GÜF Questionnaire (if applicable). Medication compliance was assessed and, medication for the next 4 weeks was dispensed as described below.
as §1, with “Visit 5” for “Visit 4”, “(Week 12):” for “(Week 8):”, “the second” for “the first”, “documented.” for “documented. Blood samples were collected in order to determine neramexane pre-dose concentration.”
Visit 6 (Week 16, end of treatment): This visit occurred at the end of the 12-week fixed-dose double-blind treatment period. The subject was asked about adverse events and changes in concomitant medication/disease, which changes are documented. A clinical laboratory evaluation was performed. A follow-up Tinnitus Interview was conducted, and the subject completed a TBF-12, HADS-D Questionnaire and GÜF Questionnaire (if applicable). Pure-tone audiometry (air conduction) was also conducted.
Visit 7 (Week 20): This visit occurred at the end of the 4-week follow-up period after the last study medication dose. Review of concomitant medications as well as the occurrence of adverse events since the last visit is conducted with subject. […]

[1] = 25 mg/d, Week 4, ITT-LOCF, n=106
[2] = 25 mg/d, Week 8, ITT-LOCF, n=106
[3] = 25 mg/d, Week 12, ITT-LOCF, n=106
[4] = 25 mg/d, Week 16 (end of treatment), ITT-LOCF, n=106
[5] = 25 mg/d, Week 20 (Follow-up, 4 weeks without treatment), ITT-LOCF, n=100
[6] = 50 mg/d, Week 4, ITT-LOCF, n=106
[7] = 50 mg/d, Week 8, ITT-LOCF, n=106
[8] = 50 mg/d, Week 12, ITT-LOCF, n=106
[9] = 50 mg/d, Week 16 (end of treatment), ITT-LOCF, n=106
[10] = 50 mg/d, Week 20 (Follow-up, 4 weeks without treatment), ITT-LOCF, n=95
[11] = 75 mg/d, Week 4, ITT-LOCF, n=99
[12] = 75 mg/d, Week 8, ITT-LOCF, n=99
[13] = 75 mg/d, Week 12, ITT-LOCF, n=99
[14] = 75 mg/d, Week 16 (end of treatment), ITT-LOCF, n=99
[15] = 75 mg/d, Week 20 (Follow-up, 4 weeks without treatment), ITT-LOCF, n=89

`CC1(C)CC(C)(C)CC(C)(N)C1` [Neramexane, 1-amino-1,3,3,5,5-pentamethylcyclohexane] was tested, and the “Change in the TBF-12 total score from baseline, Change LSMean” value (“Change … Change LSMean” below) (25 mg/d, Week 4, ITT-LOCF) was −0.8, the “Change in the TBF-12 total score from baseline, Change Mean ± SD” value (“Change … Change Mean ± SD” below) [1] was −1.0 ± 2.6 and the “TBF-12 total score, Actual Mean ± SD” value [1] was 13.4 ± 4.5. For the same molecule, the “Change in TBF-12 total score, Neramexane - Placebo LSMean Diff. ± SE” value (shortened to “Change … - Placebo LSMean Diff. ± SE”) (25 mg/d, Week 4, ITT-LOCF, 95% CI [−0.8, 0.7], p-value 0.875) was −0.1 ± 0.4, the “Change … Change LSMean” value (25 mg/d, Week 8, ITT-LOCF) was −1.5 and the “Change … Change Mean ± SD” value [2] was −1.7 ± 2.9. For the same molecule, the “TBF-12 total score, Actual Mean ± SD” value [2] was 12.7 ± 4.9, the “Change … - Placebo LSMean Diff. ± SE” value (25 mg/d, Week 8, ITT-LOCF, 95% CI [−0.5, 1.2], p-value 0.429) was 0.3 ± 0.4 and the “Change … Change LSMean” value (25 mg/d, Week 12, ITT-LOCF) was −1.4. The “Change … Change Mean ± SD” value [3] was −1.6 ± 3.4, the “TBF-12 total score, Actual Mean ± SD” value [3] was 12.8 ± 5.0 and the “Change … - Placebo LSMean Diff. ± SE” value (25 mg/d, Week 12, ITT-LOCF, 95% CI [−0.3, 1.6], p-value 0.182) was 0.6 ± 0.5. For the same molecule, the “Change … Change LSMean” value (25 mg/d, Week 16 (end of treatment), ITT-LOCF) was −1.8, the “Change … Change Mean ± SD” value [4] was −2.0 ± 3.4 and the “TBF-12 total score, Actual Mean ± SD” value [4] was 12.4 ± 5.3. For the same molecule, the “Change … - Placebo LSMean Diff. ± SE” value (25 mg/d, Week 16 (end of treatment), ITT-LOCF, 95% CI [−0.5, 1.5], p-value 0.359) was 0.5 ± 0.5, the “Change … - Placebo LSMean Diff. ± SE” value (25 mg/d, Week 20 (Follow-up), ITT-LOCF, 95% CI [−0.6, 1.6], p-value 0.336) was 0.5 ± 0.6 and the “Change … Change LSMean” value (25 mg/d, Week 20 (Follow-up, 4 weeks without treatment), ITT-LOCF) was −2.0. For the same molecule, the “Change … Change Mean ± SD” value [5] was −2.1 ± 3.4, the “TBF-12 total score, Actual Mean ± SD” value [5] was 12.3 ± 5.5 and the “Change … Change LSMean” value (50 mg/d, Week 4, ITT-LOCF) was −1.4. The “Change … Change Mean ± SD” value [6] was −1.4 ± 3.2, the “TBF-12 total score, Actual Mean ± SD” value [6] was 13.0 ± 4.7 and the “Change … - Placebo LSMean Diff. ± SE” value (50 mg/d, Week 4, ITT-LOCF, 95% CI [−1.3, 0.1], p-value 0.110) was −0.6 ± 0.4. For the same molecule, the “Change … Change LSMean” value (50 mg/d, Week 8, ITT-LOCF) was −2.1, the “Change … Change Mean ± SD” value [7] was −2.2 ± 3.3 and the “TBF-12 total score, Actual Mean ± SD” value [7] was 12.3 ± 4.8. For the same molecule, the “Change … - Placebo LSMean Diff. ± SE” value (50 mg/d, Week 8, ITT-LOCF, 95% CI [−1.1, 0.5], p-value 0.488) was −0.3 ± 0.4, the “Change … Change LSMean” value (50 mg/d, Week 12, ITT-LOCF) was −2.5 and the “Change … Change Mean ± SD” value [8] was −2.6 ± 3.8. The “TBF-12 total score, Actual Mean ± SD” value [8] was 11.8 ± 4.9, the “Change … - Placebo LSMean Diff. ± SE” value (50 mg/d, Week 12, ITT-LOCF, 95% CI [−1.4, 0.5], p-value 0.357) was −0.4 ± 0.5 and the “Change … Change LSMean” value (50 mg/d, Week 16 (end of treatment), ITT-LOCF) was −3.1. The “Change … Change Mean ± SD” value [9] was −3.2 ± 4.1, the “TBF-12 total score, Actual Mean ± SD” value [9] was 11.2 ± 5.1 and the “Change … - Placebo LSMean Diff. ± SE” value (50 mg/d, Week 16 (end of treatment), ITT-LOCF, 95% CI [−1.8, 0.2], p-value 0.098) was −0.8 ± 0.5. The “Change … - Placebo LSMean Diff. ± SE” value (50 mg/d, Week 20 (Follow-up), ITT-LOCF, 95% CI [−2.4, −0.2], p-value 0.021) was −1.3 ± 0.6, the “Change … Change LSMean” value (50 mg/d, Week 20 (Follow-up, 4 weeks without treatment), ITT-LOCF) was −3.8 and the “Change … Change Mean ± SD” value [10] was −3.9 ± 4.4. For the same molecule, the “TBF-12 total score, Actual Mean ± SD” value [10] was 10.4 ± 5.3, the “Change … Change LSMean” value (75 mg/d, Week 4, ITT-LOCF) was −1.6 and the “Change … Change Mean ± SD” value [11] was −1.7 ± 2.7. For the same molecule, the “TBF-12 total score, Actual Mean ± SD” value [11] was 12.2 ± 4.3, the “Change … - Placebo LSMean Diff. ± SE” value (75 mg/d, Week 4, ITT-LOCF, 95% CI [−1.6, −0.1], p-value 0.026) was −0.9 ± 0.4 and the “Change … Change LSMean” value (75 mg/d, Week 8, ITT-LOCF) was −1.9. The “Change … Change Mean ± SD” value [12] was −2.0 ± 3.3, the “TBF-12 total score, Actual Mean ± SD” value [12] was 11.9 ± 4.5 and the “Change … - Placebo LSMean Diff. ± SE” value (75 mg/d, Week 8, ITT-LOCF, 95% CI [−1.0, 0.7], p-value 0.813) was −0.1 ± 0.4. For the same molecule, the “Change … Change LSMean” value (75 mg/d, Week 12, ITT-LOCF) was −2.4, the “Change … Change Mean ± SD” value [13] was −2.5 ± 3.5 and the “TBF-12 total score, Actual Mean ± SD” value [13] was 11.4 ± 4.9. For the same molecule, the “Change … - Placebo LSMean Diff. ± SE” value (75 mg/d, Week 12, ITT-LOCF, 95% CI [−1.3, 0.6], p-value 0.457) was −0.4 ± 0.5, the “Change … Change LSMean” value (75 mg/d, Week 16 (end of treatment), ITT-LOCF) was −2.8 and the “Change … Change Mean ± SD” value [14] was −2.9 ± 3.9. The “TBF-12 total score, Actual Mean ± SD” value [14] was 11.0 ± 5.1, the “Change … - Placebo LSMean Diff. ± SE” value (75 mg/d, Week 16 (end of treatment), ITT-LOCF, 95% CI [−1.6, 0.5], p-value 0.289) was −0.5 ± 0.5 and the “Change … - Placebo LSMean Diff. ± SE” value (75 mg/d, Week 20 (Follow-up), ITT-LOCF, 95% CI [−1.8, 0.5], p-value 0.244) was −0.7 ± 0.6. The “Change … Change LSMean” value (75 mg/d, Week 20 (Follow-up, 4 weeks without treatment), ITT-LOCF) was −3.2, the “Change … Change Mean ± SD” value [15] was −3.3 ± 3.6 and the “TBF-12 total score, Actual Mean ± SD” value [15] was 10.5 ± 4.9. For the same molecule, the “Capability for improvement of tinnitus after withdrawal (conclusion of pilot trial)” value (after drug withdrawal) was “sustained improvement of tinnitus even after the drug is withdrawn” and the “Further improvement of tinnitus during 4-week wash-out period without any medication” value (subjects who had received low-dose (25 mg)) was “not reported”.

For `CC1(C)CC(C)(C)CC(C)(N)C1.CS(=O)(=O)O` [neramexane mesylate], the “Improvement of tinnitus as measured by the TBF-12” value (after 16-week double-blind treatment (Visit 6), final daily doses of 50 or 75 mg, distinct from placebo or low-dose (25 mg) groups) was “clear improvement of their tinnitus”, the “Differences in TBF-12 improvement between the 50 mg and the placebo group” value (end of the 4-week wash-out (Week 20, Visit 7), 50 mg) was “reached statistical significance” and the “Improvement of tinnitus during 4-week wash-out period without any medication” value (subjects previously treated with either 50 or 75 mg) was “further relevant improvement of their tinnitus”.
